{"source": "patent US20230338397A1", "about": "“COMPOSITION COMPRISING CANNABINOIDS, AND/OR TERPENS, AND METHODS OF USING SAME” (priority 2020, published 2023)", "key": {"human Jurkat T cell line": {"system": "human Jurkat T cell line", "assay": "T cell death in Jurkat cells (PI, flow cytometry)", "settings": "2 h, FIG. 11; for T cell death compared to vehicle: CBD 1-20 μM, CBG 5-20 μM"}, "human NP tissue": {"system": "human NP tissue", "assay": "NP organ culture: tissue weight reduction ex-vivo", "settings": "for NP tissue weight reduction: 150 μM"}, "[1]": {"system": "dispersed nasal polyp cells", "assay": "Cell death of dispersed NP cells (PI, flow cytometry), 2 h", "format": "cell-based, human", "settings": "10 μM, 2 h incubation, FIG. 12", "description": "DNPCs are prepared from nasal polyps by means of enzymatic digestion. Nasal Polyps are incubated for 2 hours at 37° C. in RPMI 1640 (1 g of tissue per 4 mL) containing 2.0 mg/mL protease, 1.5 mg/mL collagenase, 0.75 mg/mL hyaluronidase, and 0.05 mg/mL DNase. The cell suspension is then filtered through a […] cell strainer to remove any undigested tissue and washed 2 times with washing medium (RPMI 1640 supplemented with 2% FCS, 2 mmol/L glutamine, 100 U/mL penicillin, and […] streptomycin). The cell pellet is resuspended in erythrocyte lysis buffer and washed with washing medium. After washing, DNPCs are suspended in culture medium (RPMI 1640 supplemented with 10% Foetal Calf Serum (FCS), 2 mmol/L glutamine, 100 U/mL penicillin, and […] streptomycin).\nThe effect of the treatment is evaluated by cell death parameters, using […] (PI) and flow cytometry (FACS) analysis, and enzymatic-linked immunoassay (ELISA)."}, "[2]": {"system": "enzymatically-dissociated human NP", "assay": "NP organ culture: cell death by PI and flow cytometry after enzymatic digestion", "settings": "for cell death of incubated nasal polyp cells: 72 h, FIG. 10"}, "GM-CSF": {"system": "GM-CSF", "assay": "GM-CSF level in SEB-stimulated dispersed nasal polyp cells", "format": "cell-based, human", "settings": "CBD 2.5 μM, 5 μM, 10 μM, 30 min before SEB, FIG. 8"}, "[3]": {"system": "human nasal polyp (NP) whole tissues", "assay": "NP organ culture: detachment of cells/tissue pieces from nasal polyp (micrographs)"}}, "note": "“Also recorded” adds a separate entry of the source.", "data": [{"compound": "C=C(C)[C@@H]1CCC(C)=C[C@H]1c1c(O)cc(CCC)cc1O", "note": "[CBDV, cannabidivarin]", "values": [{"measurement": "T cell death", "setting": "human Jurkat T cell line; CBDV 20 μM", "result": "induce cell death"}]}, {"compound": "CCCCCc1cc(O)c(C/C=C(\\C)CCC=C(C)C)c(O)c1", "note": "[CBG, cannabigerol]", "values": [{"measurement": "size of nasal polyps", "setting": "human NP tissue; CBG 150 μM, 24 h, FIG. 13A", "result": "size of nasal polyps is reduced"}, {"measurement": "cell death % of dispersed NP cells", "setting": "[1]", "result": "significant increase in cell death %; also recorded: significant increase in cell death"}, {"measurement": "cell death of NP cells", "setting": "[2]; CBG 150 μM, FIG. 13C-13D", "result": "substantial cell death"}, {"measurement": "T cell death compared to vehicle", "setting": "human Jurkat T cell line", "result": "significant cell death compared to control"}]}, {"compound": "CCCCCc1cc(O)c2c(c1)OC(C)(C)[C@@H]1CCC(C)=C[C@@H]21", "note": "[THC, tetrahydrocannabinol]", "values": [{"measurement": "viability of nasal polyp cells (cell death)", "setting": "[2]; THC 10 μM and 100 μM, 24 h, FIG. 9", "result": "comparable effect as CBD at 15 μM and 150 μM, respectively"}, {"measurement": "% cell death", "setting": "[2]; THC 100 μM, FIG. 9", "result": "comparable effect to CBD at a concentration of 150 μM"}, {"measurement": "cell death of incubated nasal polyp cells", "setting": "[2]; THC alone 10 μM", "result": "negligible"}]}, {"compound": "C=C(C)[C@@H]1CCC(C)=C[C@H]1c1c(O)cc(CCCCC)cc1O", "note": "[CBD, cannabidiol]", "values": [{"measurement": "GM-CSF level", "setting": "GM-CSF", "result": "significantly decrease; also recorded: significantly reduces or inhibits"}, {"measurement": "NP tissue weight reduction", "setting": "human NP tissue; 3 h incubation, FIG. 4", "result": "significant tissue weight reduction; also recorded: significant nasal polyp weight reduction"}, {"measurement": "NP tissue weight reduction", "setting": "human NP tissue; CBD 15 μM, 1.5 mM, 24 h incubation, FIG. 5", "result": "significant human NP tissue weight reduction; also recorded: significant dose-dependent nasal polyp weight reduction"}, {"measurement": "detachment of cells/tissue pieces from the main NP", "setting": "[3]; CBD 150 μM, 3 h incubation, FIG. 1", "result": "starting to detach from the main NP whole tissue; also recorded: starting to detach and disaggregate from the main polyp"}, {"measurement": "cells/tissue pieces breaking off the main polyp", "setting": "[3]; CBD 150 μM, 72 h incubation, FIG. 3", "result": "cells/tissue pieces are breaking off the main polyp into the medium"}, {"measurement": "detachment of cells/tissues from the main NP", "setting": "[3]; CBD 600 μM, 24 h incubation, FIG. 2", "result": "significant detachment of cells/tissues; also recorded: significant detachment of nasal polyp cells/pieces"}, {"measurement": "cell death % of dispersed NP cells", "setting": "[1]", "result": "significant increase in cell death %; also recorded: significant increase in cell death"}, {"measurement": "percent of dead cells", "setting": "[2]; CBD 15 μM, 150 μM, 1.5 mM, 24 h, PI-positive, FIG. 7", "result": "significantly increased the percent of dead cells"}, {"measurement": "cell death of incubated nasal polyp cells", "setting": "[2]; CBD alone 150 μM", "result": "substantial cell death"}, {"measurement": "T cell death compared to vehicle", "setting": "human Jurkat T cell line", "result": "significant cell death compared to control"}]}]}
